The target in series [1] is T1, Aromatase (Homo sapiens, UniProt P11511).
T1 sequence (P11511 whole entry): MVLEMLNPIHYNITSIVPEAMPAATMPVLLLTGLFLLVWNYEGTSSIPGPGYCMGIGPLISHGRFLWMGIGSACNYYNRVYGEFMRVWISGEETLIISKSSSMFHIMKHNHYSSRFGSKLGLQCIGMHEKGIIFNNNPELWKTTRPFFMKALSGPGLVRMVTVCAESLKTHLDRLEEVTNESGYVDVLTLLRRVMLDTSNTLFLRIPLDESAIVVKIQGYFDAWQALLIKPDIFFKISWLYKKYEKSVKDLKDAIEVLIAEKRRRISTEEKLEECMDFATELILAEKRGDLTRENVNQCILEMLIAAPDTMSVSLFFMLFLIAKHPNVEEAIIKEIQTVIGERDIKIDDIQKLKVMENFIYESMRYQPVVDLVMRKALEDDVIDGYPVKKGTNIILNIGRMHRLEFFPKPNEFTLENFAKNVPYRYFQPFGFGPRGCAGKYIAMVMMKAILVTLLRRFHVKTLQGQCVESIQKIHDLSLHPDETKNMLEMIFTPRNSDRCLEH
Kind of series: Inhibition of aromatase (unknown origin) using O-benzyl fluorescein benzyl ester as substrate in presence of NADPH-generating system by fluorescence assay.

In series [2] the test system is aromatase. Kind of series: Selectivity index, ratio of IC50 for GFP-expressing African green monkey Vero cells to IC50 for aromatase (unknown origin). It counts as toxicity. The settings on record: read-out: Ratio IC50.
Series [3] deals with Vero. Kind of series: Cytotoxicity against GFP-expressing African green monkey Vero cells after 4 days by fluorescence assay. The class given is cell-based. The settings on record: Chlorocebus sabaeus, 96 h.

A value given as a limit tells only on which side of the number the result lay.

For orientation: IC50 means the concentration that gives 50% inhibition. `O=[N+]([O-])c1ccc(C(c2[nH]c3ccccc3c2CCNS(=O)(=O)c2ccc(Br)cc2)c2[nH]c3ccccc3c2CCNS(=O)(=O)c2ccc(Br)cc2)cc1`: the IC50 in series [1] is 2.7 µM; in series [3], greater than 50 µg/mL. In series [2], the selectivity ratio is greater than 20.8.
Turning to `O=[N+]([O-])c1ccccc1S(=O)(=O)NCCc1c(C(c2ccccc2O)c2[nH]c3ccccc3c2CCNS(=O)(=O)c2ccccc2[N+](=O)[O-])[nH]c2ccccc12`, the IC50 in series [1] was 4.6 µM; in series [3], greater than 50 µg/mL. Moreover, the selectivity ratio in series [2] is greater than 13.7.
The matching figures for `O=[N+]([O-])c1ccc(C(c2[nH]c3ccccc3c2CCNS(=O)(=O)c2ccc(F)cc2)c2[nH]c3ccccc3c2CCNS(=O)(=O)c2ccc(F)cc2)cc1`: 3.5 µM, greater than 50 µg/mL and greater than 18.6.
The matching figures for `O=S(=O)(NCCc1c(C(c2ccc(C(F)(F)F)cc2)c2[nH]c3ccccc3c2CCNS(=O)(=O)c2ccc(C(F)(F)F)cc2)[nH]c2ccccc12)c1ccc(C(F)(F)F)cc1`: 2.3 µM, greater than 50 µg/mL and greater than 24.4.
The matching figures for `O=S(=O)(NCCc1c(C(c2ccccc2O)c2[nH]c3ccccc3c2CCNS(=O)(=O)c2ccc(Cl)cc2)[nH]c2ccccc12)c1ccc(Cl)cc1`: 4.2 µM, greater than 50 µg/mL and greater than 15.4.
`Cc1ccc(S(=O)(=O)NCCc2c(C(c3ccccc3O)c3[nH]c4ccccc4c3CCNS(=O)(=O)c3ccc(C)cc3)[nH]c3ccccc23)cc1`: the IC50 worked out at 4.1 µM in series [1] and 14.8 µM in series [3]. The selectivity ratio in series [2] is 3.6.
For `N#Cc1ccc(C(c2[nH]c3ccccc3c2CCNS(=O)(=O)c2ccc(F)cc2)c2[nH]c3ccccc3c2CCNS(=O)(=O)c2ccc(F)cc2)cc1`, the concentration for half-maximal inhibition (IC50) in series [1] was 9.8 µM; in series [3], greater than 50 µg/mL. Besides, the selectivity ratio in series [2] is greater than 6.8.
The matching figures for `O=S(=O)(NCCc1c(C(c2ccc(O)cc2)c2[nH]c3ccccc3c2CCNS(=O)(=O)c2ccc(Cl)cc2)[nH]c2ccccc12)c1ccc(Cl)cc1`: 1.4 µM, 15 µM and 10.7.
The matching figures for `O=S(=O)(NCCc1c(C(c2ccc(Br)cc2)c2[nH]c3ccccc3c2CCNS(=O)(=O)c2ccc(Cl)cc2)[nH]c2ccccc12)c1ccc(Cl)cc1`: 2.7 µM, 44.9 µM and 16.6.
The matching figures for `O=[N+]([O-])c1ccc(C(c2[nH]c3ccccc3c2CCNS(=O)(=O)c2ccc(C(F)(F)F)cc2)c2[nH]c3ccccc3c2CCNS(=O)(=O)c2ccc(C(F)(F)F)cc2)cc1`: 4 µM, greater than 50 µg/mL and greater than 14.4.
Consider `O=C1Nc2ccccc2C1(c1[nH]c2ccccc2c1CCNS(=O)(=O)c1cccc([N+](=O)[O-])c1)c1[nH]c2ccccc2c1CCNS(=O)(=O)c1cccc([N+](=O)[O-])c1`, for which the IC50 in series [1] is 11.9 µM; in series [3], greater than 50 µg/mL. Besides, the selectivity ratio in series [2] was greater than 5.13.
The matching figures for `COc1ccc(S(=O)(=O)NCCc2c(C(c3ccccc3O)c3[nH]c4ccccc4c3CCNS(=O)(=O)c3ccc(OC)cc3)[nH]c3ccccc23)cc1`: 0.8 µM, greater than 50 µg/mL and greater than 81.7.
The matching figures for `O=[N+]([O-])c1cccc(S(=O)(=O)NCCc2c(C(c3ccccc3O)c3[nH]c4ccccc4c3CCNS(=O)(=O)c3cccc([N+](=O)[O-])c3)[nH]c3ccccc23)c1`: 1.7 µM, greater than 50 µg/mL and greater than 37.
The matching figures for `N#Cc1ccc(C(c2[nH]c3ccccc3c2CCNS(=O)(=O)c2ccc(Cl)cc2)c2[nH]c3ccccc3c2CCNS(=O)(=O)c2ccc(Cl)cc2)cc1`: 5.5 µM, greater than 50 µg/mL and greater than 11.6.
Take `O=[N+]([O-])c1cccc(S(=O)(=O)NCCc2c(C(c3ccc(O)cc3)c3[nH]c4ccccc4c3CCNS(=O)(=O)c3cccc([N+](=O)[O-])c3)[nH]c3ccccc23)c1`: the IC50 in series [1] was 2.3 µM; in series [3] it was greater than 50 µg/mL. For the same compound, in series [2], the selectivity ratio is greater than 27.4.
The matching figures for `Cc1ccc(S(=O)(=O)NCCc2c(C(c3ccccc3)c3[nH]c4ccccc4c3CCNS(=O)(=O)c3ccc(C)cc3)[nH]c3ccccc23)cc1`: 11.9 µM, greater than 50 µg/mL and greater than 5.86.
The matching figures for `O=S(=O)(NCCc1c(C(c2ccc(F)cc2)c2[nH]c3ccccc3c2CCNS(=O)(=O)c2ccc(Cl)cc2)[nH]c2ccccc12)c1ccc(Cl)cc1`: 5.4 µM, greater than 50 µg/mL and greater than 11.9.
`COc1ccc(S(=O)(=O)NCCc2c(C(c3ccccc3)c3[nH]c4ccccc4c3CCNS(=O)(=O)c3ccc(OC)cc3)[nH]c3ccccc23)cc1`: the IC50 in series [1] was 3.5 µM; in series [3], greater than 50 µg/mL. For the same compound, in series [2], the selectivity ratio is greater than 19.1.
The matching figures for `O=[N+]([O-])c1ccc(S(=O)(=O)NCCc2c(C(c3ccccc3)c3[nH]c4ccccc4c3CCNS(=O)(=O)c3ccc([N+](=O)[O-])cc3)[nH]c3ccccc23)cc1`: 11.2 µM, greater than 50 µg/mL and greater than 5.73.
The matching figures for `O=S(=O)(NCCc1c(C(c2ccc(C(F)(F)F)cc2)c2[nH]c3ccccc3c2CCNS(=O)(=O)c2ccc(Br)cc2)[nH]c2ccccc12)c1ccc(Br)cc1`: 3.8 µM, greater than 50 µg/mL and greater than 14.4.
The matching figures for `O=S(=O)(NCCc1c(C(c2ccc(O)cc2)c2[nH]c3ccccc3c2CCNS(=O)(=O)c2ccc(C(F)(F)F)cc2)[nH]c2ccccc12)c1ccc(C(F)(F)F)cc1`: 1.3 µM, 13.3 µM and 10.2.
With `COc1ccc(S(=O)(=O)NCCc2c(C3(c4[nH]c5ccccc5c4CCNS(=O)(=O)c4ccc(OC)cc4)C(=O)Nc4ccccc43)[nH]c3ccccc23)cc1`, the IC50 is 2.8 µM in series [1] and greater than 50 µg/mL in series [3]. For the same compound, the selectivity ratio in series [2] was greater than 22.6.
In the case of `O=S(=O)(NCCc1c(C(c2ccc(F)cc2)c2[nH]c3ccccc3c2CCNS(=O)(=O)c2ccc(Br)cc2)[nH]c2ccccc12)c1ccc(Br)cc1`, the IC50 in series [1] is 7.6 µM; in series [3] it was greater than 50 µg/mL. For the same compound, the selectivity ratio in series [2] is greater than 7.61.
The matching figures for `CCn1c2ccccc2c2ccc(C(c3[nH]c4ccccc4c3CCNS(=O)(=O)c3ccc(Cl)cc3)c3[nH]c4ccccc4c3CCNS(=O)(=O)c3ccc(Cl)cc3)cc21`: 3.9 µM, greater than 50 µg/mL and greater than 14.7.
The matching figures for `O=C1Nc2ccccc2C1(c1[nH]c2ccccc2c1CCNS(=O)(=O)c1ccc(Cl)cc1)c1[nH]c2ccccc2c1CCNS(=O)(=O)c1ccc(Cl)cc1`: 8.3 µM, greater than 50 µg/mL and greater than 7.54.
The matching figures for `O=S(=O)(NCCc1c(C(c2ccc3c(c2)Cc2ccccc2-3)c2[nH]c3ccccc3c2CCNS(=O)(=O)c2ccc(Cl)cc2)[nH]c2ccccc12)c1ccc(Cl)cc1`: 8.8 µM, greater than 50 µg/mL and greater than 6.72.
Regarding `COc1ccc(S(=O)(=O)NCCc2c(C(c3ccc(O)cc3)c3[nH]c4ccccc4c3CCNS(=O)(=O)c3ccc(OC)cc3)[nH]c3ccccc23)cc1`, the IC50 in series [1] is 0.7 µM; in series [3] it was greater than 50 µg/mL. In series [2], the selectivity ratio is greater than 93.4.
In series [3], `Cc1c2ccncc2c(C)c2c1[nH]c1ccccc12` [ELLIPTECINE] returned an IC50 of 1.94 µM.
For the compound `O=S(=O)(NCCc1c(C(c2ccc(Br)cc2)c2[nH]c3ccccc3c2CCNS(=O)(=O)c2ccc(C(F)(F)F)cc2)[nH]c2ccccc12)c1ccc(C(F)(F)F)cc1`, the figures for the 50% inhibitory concentration (IC50) in series [1] and in series [3] were 3.4 µM and 24.8 µM, respectively. Moreover, the selectivity ratio in series [2] was determined as 7.3.
The matching figures for `N#Cc1ccc(C(c2[nH]c3ccccc3c2CCNS(=O)(=O)c2ccc(C(F)(F)F)cc2)c2[nH]c3ccccc3c2CCNS(=O)(=O)c2ccc(C(F)(F)F)cc2)cc1`: 15.3 µM, greater than 50 µg/mL and greater than 3.85.
The matching figures for `O=C1Nc2ccccc2C1(c1[nH]c2ccccc2c1CCNS(=O)(=O)c1ccccc1[N+](=O)[O-])c1[nH]c2ccccc2c1CCNS(=O)(=O)c1ccccc1[N+](=O)[O-]`: 9.8 µM, greater than 50 µg/mL and greater than 6.22.
The matching figures for `O=[N+]([O-])c1ccc(S(=O)(=O)NCCc2c(C(c3ccccc3O)c3[nH]c4ccccc4c3CCNS(=O)(=O)c3ccc([N+](=O)[O-])cc3)[nH]c3ccccc23)cc1`: 2.8 µM, greater than 50 µg/mL and greater than 22.5.
In the case of `O=S(=O)(NCCc1c(C(c2ccc(C(F)(F)F)cc2)c2[nH]c3ccccc3c2CCNS(=O)(=O)c2ccc(Cl)cc2)[nH]c2ccccc12)c1ccc(Cl)cc1`, the IC50 in series [1] stood at 3.2 µM; in series [3], 16.2 µM. For the same compound, in series [2], the selectivity ratio worked out at 5.06.
The matching figures for `O=S(=O)(NCCc1c(C(c2ccc(F)cc2)c2[nH]c3ccccc3c2CCNS(=O)(=O)c2ccc(C(F)(F)F)cc2)[nH]c2ccccc12)c1ccc(C(F)(F)F)cc1`: 4.4 µM, 15.1 µM and 3.42.

For the origin of these results see ChEMBL document CHEMBL4138181, “Synthesis, molecular docking, and QSAR study of sulfonamide-based indoles as aromatase inhibitors” (Eur J Med Chem, 2018).
